Measured values as given in patent publication US20110039935A1, “USE OF PHARMACOLOGICALLY ACTIVE CHEMICAL COMPOUNDS” (ENTRESS AB, priority 2007, published 2011).
Entries after “also recorded” stand apart in the source; their conditions may differ.

Legend:
[1] = test system: abdominal aorta sections of bypass and sham operated rats; test: Elastic recoil of aorta sections from bypass- and sham-operated rats given AKG; type: in vivo, Sprague Dawley rats
Method: A dissected portion of the abdominal aorta, prior to the right- and left common iliac arteries, was carefully cleaned to remove adhering tissues.
Force was measured using a FTO3 force displacement transducer (Grass Instrument, West Warwick, R.I.) connected to a home-built bridge amplifier which was interfaced with a 8S PowerLab A/D Converter (ADInstruments, Chalgrove, Oxfordshire, UK).
The recorded signal was adjusted to zero for un-tensioned aorta sections with the aid of an offset dial mounted on the pre-amplifier unit. Each aorta section was then exposed to approx. 5 step-wise increases in tension (each step being approx. 0.09 N), until a final maximal tension of 0.49 N (measured using the FT03 Grass Force transducer) was achieved. […] Aorta sections were subsequently removed and weighed.
(§1) LaPlace's equation assumes the tension (T) in the wall of a hollow cylinder is directly proportional to the cylinders radius (r) and the pressure (p) across the wall, caused by the flow inside the cylinder, such that T=p×r. If one assumes that the tension in the wall of the aorta sections is equivalent to that recorded by the force transducer as the result of a manual stretch, then the pressure that would have given rise to such an increase in tension can be calculated using LaPlace's equation and the measured radius of each aorta section.
Data are presented as mean±SE.

[2] = test system: abdominal aorta sections of elderly mice; conditions: for elasticity of aorta sections (elastic recoil), first series of stretches: control 3.3×10^−5; for decrease in elastic recoil, second versus first series: repeated stretching protocol, control approximately 90%
Method: This time, experimental subjects that were in need of increased artery elasticity for a more general reason, namely advanced age, were studied.
Female NMRI mice, aged 50 weeks at the start of the trial, were housed at the animal facilities of the Department of Cell & Organism Biology, Lund University, Sweden. The animals were raised under the same conditions with a 12/12 hour light-dark cycle. Mice were fed rodent pellets ad libitum (Altromin no. 1314 Spezialfutterwerke, Lage, Germany) and given free access to drinking water. […] Mice allocated to Group 3 were only fed rodent pellets and were considered to be the Control group (n=6). The level of AKG fed as a supplement to the diet represented 2% of the voluntary feed intake of the mice, which was approx. 10-15% of body weight per day.
The mice were anaesthetized by exposure to 95% CO2 and killed by cervical dislocation. A dissected portion of the abdominal aorta, prior to the right- and left common iliac arteries, was carefully cleaned to remove adhering tissues. The aorta was cut into approx. 4.5 mm pieces with a diameter at rest of approx. 1 mm, and each piece was then securely attached at one end to a force transducer and at the other to a metal pin on a mounting block, as described in part (Harrison et al. Reprod Fertil Dev. 1997; 9(7):731-40, Harrison and Flatman Am J Physiol. 1999 December; 277(6 Pt 2):R1646-53).
Aorta sections were immersed into oxygenated and thermostatically controlled chambers (37° C.), having an internal depth and diameter of 5.5 and 3.2 cm, respectively, and holding 44 ml of phosphate buffered saline (0.15 M PBS, pH 7.4) comprising in mM; NaCl 136.91, KCl 2.68, Na2HPO4 8.08 and NaH2PO4 1.66. Force was measured using a FTO3 force displacement transducer (Grass Instrument, West Warwick, R.I.) connected to a home-built bridge amplifier which was interfaced with a 8S PowerLab A/D Converter (ADInstruments, Chalgrove, Oxfordshire, UK). […] The PowerLab 8S A/D converter was connected to an iBook G4 running Chart v.5.4 Software (AD Instruments, Australia). The data recording was at a sampling speed of 40.000 data samples per second (40 KHz) and the input impedance of the amplifier was 200 MΩ differential
Aorta sections were suspended vertically, and in duplicate. The recorded signal was adjusted to zero for un-tensioned aorta sections with the aid of an offset dial mounted on the pre-amplifier unit. Each aorta section was then exposed to approx. 5 step-wise increases in tension (each step being approx. 0.09 N), until a final maximal tension of 0.49 N (measured using the FT03 Grass Force transducer) was achieved. […] The aorta sections were then allowed to relax totally before being exposed to repeat step-wise increases in tension a further two more times, in close succession. Aorta sections were subsequently removed and weighed.
This fall in the recording trace was measured over time using the Average Slope calculation available as part of Chart v.5.4 Software (AD Instruments, Australia).
as §1

[3] = test system: excised aorta sections of elderly mice; test: Robustness of aorta sections to stretch (successful stretches without rupture); type: in vivo, NMRI mice; conditions: for number of successful stretches without rupture, First Replicate / number of successful stretches without rupture, Second Replicate: 0.49 N max. tension stepwise, control 4 out of 6; for successful stretches without rupture, Mean (%): mean of two replicates, control 66.7
Method: Female NMRI mice, aged 50 weeks at the start of the trial, were housed at the animal facilities of the Department of Cell & Organism Biology, Lund University, Sweden. The animals were raised under the same conditions with a 12/12 hour light-dark cycle. Mice were fed rodent pellets ad libitum (Altromin no. 1314 Spezialfutterwerke, Lage, Germany) and given free access to drinking water. […] Mice in Group 1 were fed rodent pellets plus (2% w/v) Na2−AKG 2H2O (n=6), whilst mice in Group 2 were fed rodent pellets plus (2% w/v) Ca−AKG H2O (n=6). Mice allocated to Group 3 were only fed rodent pellets and were considered to be the Control group (n=6). The level of AKG fed as a supplement to the diet represented 2% of the voluntary feed intake of the mice, which was approx. 10-15% of body weight per day.
Aorta sections were suspended vertically, and in duplicate. The recorded signal was adjusted to zero for un-tensioned aorta sections with the aid of an offset dial mounted on the pre-amplifier unit. Each aorta section was then exposed to approx. 5 step-wise increases in tension (each step being approx. 0.09 N), until a final maximal tension of 0.49 N (measured using the FT03 Grass Force transducer) was achieved. This final level of tension was by no means close to the physiological maximum force recorded in aorta sections. The aorta sections were then allowed to relax totally before being exposed to repeat step-wise increases in tension a further two more times, in close succession. Aorta sections were subsequently removed and weighed.
In all the arteries studied, the initial stretch series (e.g. application of tension followed by relaxation) led to a decrease in elasticity with subsequent applications of tension. This effect may be compared to the sort of damage that would be expected to arise with a sudden increase in blood pressure (see FIG. 5).

[4] = elderly mice fed 2% w/v in pellets for 182 days, n=6, mean±SE

## O=C(O)CCC(=O)C(=O)O [AKG, alpha-ketoglutaric acid]
[1]; B+AKG versus B−AKG, P=0.047
  effect of AKG-intake on arterial elasticity in bypass-operated rats: significant effect; also recorded: positive effect
[1]; S+AKG versus S−AKG, P=0.44
  effect of AKG-intake on aorta elasticity in sham-operated control rats: no effect

## O=C([O-])CCC(=O)C(=O)[O-].[Ca+2] [Ca−AKG, calcium alpha-ketoglutarate]
[2]; [4]
  elasticity of aorta sections (elastic recoil), first series of stretches: 6.4×10^−5±2.7×10^−6 N ms^−1 mg^−1 wet wt
[2]; elderly mice, arterial elasticity
  effect compared to Na−AKG group: better effects
[2]; elderly mice, first stretch series (FIG. 4)
  effect on arterial elasticity compared with the control mice: significant effect
[2]
  decrease in elastic recoil, second versus first series: 94%
[3]
  number of successful stretches without rupture, First Replicate: 4 out of 6
  number of successful stretches without rupture, Second Replicate: 5 out of 6
  successful stretches without rupture, Mean (%): 75.0%

## O=C([O-])CCC(=O)C(=O)[O-].[Na+].[Na+] [Na−AKG, sodium alpha-ketoglutarate]
[2]; [4]
  elasticity of aorta sections (elastic recoil), first series of stretches: 4.3×10^−5±1.6×10^−6 N ms^−1 mg^−1 wet wt
[2]; elderly mice fed 2% w/v in pellets for 182 days, n=6, mean±SE, control 3.4×10^−6
  elasticity of aorta sections (elastic recoil), second series of stretches: 3.7×10^−6±1.1×10^−6 N ms^−1 mg^−1 wet wt
[2]
  decrease in elastic recoil, second versus first series: 91%
[3]
  number of successful stretches without rupture, First Replicate: 4 out of 6
  number of successful stretches without rupture, Second Replicate: 5 out of 6
  successful stretches without rupture, Mean (%): 75.0%
other
  uptake after enteral administration: faster uptake after enteral administration with higher peak blood levels
